| SMILES | melting point [°C] |
| --- | --- |
| Cc1ccc(F)c2c1N(CC1CCCO1)C(=O)C21COc2cc3c(cc21)CCO3 (stereo not drawn) | 175 to 176 |
| N#Cc1ccc(F)c(C(c2cc(N)ncc2Cl)S(=O)(=O)c2ccc(Cl)cc2)c1 (stereo not drawn) | > 220 |
| CCC(CC)(CC)NC(=S)Nc1cc(Cl)cc(Cl)c1 | 152 to 154 |
| O=C1CCCc2c1ccc1c2OCO1 | 132 to 136 |
| CCNC(=N)NC(=O)Cc1ccc(Cl)cc1 | 146 to 147 |
| CC12CC(=O)C3C(CCC4CC(O)CCC43C)C1CCC2C(=O)COCCN1CCOCC1 (stereo not drawn) | 112 to 113 |
| c1nc(Nc2ccc3[nH]ccc3c2)c2sc(-c3ccc(CNCCN4CCOCC4)cc3)cc2n1 | 100 to 111 |
| O=C(O)c1c[nH]c2cc(Cl)c([N+](=O)[O-])cc2c1=O | 294 to 297 |
| Cc1c(CN2CCOCC2)ccc2c1-c1[nH]nc(-c3ccsc3)c1C2 | 272 to 274 |
| C=CCn1c(C)c(C)c2cnnc(OCc3ccc(C(F)(F)F)cc3)c21 | 95 to 96 |
| N#CSc1ccc(N)c(C(F)(F)F)c1 | 52 to 55 |
| O=P1(NCCCl)OCCCN1CCBr (stereo not drawn) | 50 to 51 |
| CC(=O)C(C#N)c1ccc(F)c(Cl)c1 (stereo not drawn) | 133 to 134 |
| O=c1[nH]c2cc([N+](=O)[O-])c(-n3ccc(C=NO)c3)cc2n(C2CCCCC2)c1=O | 234 |
| Nc1cccc(-c2ccc(CCN3C4CCC3CC(N)C4)cc2)n1 (stereo not drawn) | > 300 |
| O=C(CCCCl)c1ccc2oc3ccc(C(=O)CCCCl)cc3c2c1 | 102 to 104 |
| COc1ccc(-c2nc(N)ncc2-c2ccc(=O)[nH]n2)cc1OC | 225 |
| CCN(CC)c1nc(Cc2ccc(OC)c(OC)c2)nc2sc(C#N)c(C)c12 | 107 to 109 |
| CC1(c2nn(-c3c(Cl)cc(C(F)(F)F)cc3Cl)cc2C#N)CC1(Cl)Cl (stereo not drawn) | 97 to 98.5 |
| CCCSc1ncnc2c1ncn2C1CC(F)C(CO)O1 (stereo not drawn) | 85 to 86 |
| C#CCOc1cc(-n2nc(CCC=C)[nH]c2=O)c(Cl)cc1Cl | 150 to 151 |
| CCC(CC)n1c(=O)ccc2cnc(S(C)=O)nc21 (stereo not drawn) | 111 to 114 |

| SMILES | melting point [°C] |
| --- | --- |
| O=[N+]([O-])C(=Cc1cccs1)C1=NCCN1Cc1ccc(Cl)nc1 | 189 to 190 |
| OC(c1ccc(Cl)cc1Cl)C(Oc1ccc(Cl)cc1)n1ccnc1 (stereo not drawn) | 108 to 110 |
| Clc1ccc(-c2cc(C3CCN(Cc4cccc(Cl)c4)CC3)n[nH]2)cc1 | 134 to 136 |
| COc1ccc(S(=O)(=O)C2(C(=O)O)CCN(C(C)C)CC2)cc1 | 204 |
| N#Cc1[nH]c(Br)c(C#N)c1Br | 227 to 232 |
| c1ccc2c(C3CNCCNCCNCCNCCN3)cccc2c1 (stereo not drawn) | 87 to 88 |
| Cc1ccc(S(N)(=O)=O)cc1NC(=O)c1cnn2c(C(F)(F)F)cc(-c3ccc(C(F)(F)F)cc3)nc12 | 310 |
| CCc1nn(CCO)c(CC)c1C(=O)c1cc(Cl)cc(Cl)c1 | 134 |
| NS(=O)(=O)c1ccc(C2(c3nc4c(F)cccc4s3)C=C(C(F)F)NN2)cc1 (stereo not drawn) | 243 to 245 |
| Brc1ccc2[nH]cc(C3=CCNCC3)c2c1 | 202 to 204 |
| O=C(CC1(O)CCC1)N[C@H]1CC[C@H](CCN2CCN(c3nccc4c3CCO4)CC2)CC1 | 155 |
| O=C(CP(=S)(c1ccccc1)c1ccccc1)c1ccccc1 | 83 to 84 |
| Cc1nc2cc3c(cc2c(=O)[nH]1)CCC3 | 284 |
| Ic1c[nH]c2nccc(OC3CCCCC3)c12 | 199 to 201 |
| Cc1onc(-c2ccc(Br)cc2)c1-c1ccc(S(N)(=O)=O)cc1 | 152 to 153 |
| FC(F)(F)c1cccc(C(NC2=NCCO2)C(F)(F)F)c1 (stereo not drawn) | 129 to 132 |
| O=C1c2cc(Cl)c(Cl)cc2C(O)N1CCO[N+](=O)[O-] (stereo not drawn) | 145 to 147 |
| C=CCC1(CC=C)CCC(=Cc2ccc(Cl)cc2)C1(O)Cn1cncn1 (stereo not drawn) | 128 |
| CC(C)c1cccc(C(C)C)c1NS(=O)(=O)CC#N | 195 to 197 |
| O=C1CSc2ccc(S(=O)(=O)Cl)cc2N1 | 165 to 167 |
| CNS(=O)(=O)c1cc(OC)c(OC)c(C(=O)O)c1 | 164 to 165 |

Now from value to molecule:

| melting point [°C] | SMILES |
| --- | --- |
| 186 to 190 | Cc1nc(-c2cc(Cl)ccc2Cl)n2c1nnc1cc(F)ccc12 |
| 149 to 150 | O=c1ccn(-c2cccc(Oc3nc4ccccc4[nH]3)c2)nc1-c1ccnn1-c1ccccc1 |
| 239 to 240 | CC(=O)Oc1ccc2scc(C(=O)O)c2c1 |
| 180 to 182 | O=[N+]([O-])c1cccc2c1ncn2-c1cccc(Br)c1 |
| 137 | Cc1c(NC(=O)OCc2ccccc2)cccc1C(C[N+](=O)[O-])c1c[nH]c2cc(N3CCOCC3)ccc12 (stereo not drawn) |
| 205 to 208 | CCCN(CCC)C(=O)Cn1c(-c2ccc([N+](=O)[O-])cc2)nc2cccnc21 |
| 148 to 154 | COc1ccc2[nH]cc(CCCN(CC3CC3)C3COc4c(F)ccc(C(N)=O)c4C3)c2c1 (stereo not drawn) |
| 250 to 252 | CC(C)CNc1cc(C(=O)O)cc(S(N)(=O)=O)c1Sc1ccc(N)cc1 |
| 155 to 157 | CC(C)n1nc(-c2sc(NC(=O)CN(C)CCN(C)C)nc2-c2ccccc2)ccc1=O |
| 223 to 227 | O=C(O)c1ccc(CNS(=O)(=O)c2ccccc2)cc1 |
| 159 to 161 | COC(=O)C=Cc1ccc(OCc2nc(-c3ccccc3)c(-c3ccccc3)o2)cc1 |
| 206 to 208 | CCC(=O)N(C)Cc1cccc2c1C(=O)N(C1CCC(=O)NC1=O)C2=O (stereo not drawn) |
| 258 | Cn1c(=O)c(C#N)c(Cl)c2cc(F)ccc21 |
| 203 to 205 | CS(=O)(=O)c1ccc(-c2oc3ccccc3c(=S)c2-c2ccc(F)cc2)cc1 |
| 237 to 238 | CC1CN(c2ncc(C(=O)N(C)c3cccc(C(F)(F)F)c3)c(N)n2)C(=O)N1 (stereo not drawn) |
| 150 to 151 | C[C@@H]1NC(=O)[C@H]2Cc3c([nH]c4ccccc34)[C@@H](c3ccc4occc4c3)N2C1=O |
| 221 to 222 | CC1C2=C(CN=C(c3ccccc3Cl)c3cc(Cl)ccc32)C(=O)N1CC(N)=O (stereo not drawn) |
| 120 to 122 | O=C1C2CCCC2=Nc2ccccc2N1Cc1cccc(OCc2ccccc2)c1 (stereo not drawn) |
| 167 to 168 | O=C(NCCO)c1cccc(-c2ccc3c(c2)N(c2ccc(Cl)c(Cl)c2)CC3)c1 |
| 158 to 161 | CCCCC1NC(/C=C(\Cc2cccs2)C(=O)O)=CN1Cc1ccc(C(=O)O)c(-c2ccccc2)c1 (stereo not drawn) |
| 106 | CCOC(=O)C1CC1c1cc(=O)c2ccc3ccccc3c2o1 (stereo not drawn) |
| 209 to 211 | COc1cc(C(=O)C(=O)c2ccccc2)c(OC)cc1C(=O)C(=O)c1ccccc1 |
| 256 to 257 | COc1ccc(-c2cc3ccc(Cl)cc3[nH]c2=O)cc1 |
| 56 to 61 | O=C(NCCCCCCOC(=O)N1CCC(OC(=O)N2CCCCC2)CC1)Oc1ccc(Oc2ccccc2)cc1 |
| 193 to 194 | O=C(NCc1cccs1)[C@@H]1CCCN(c2cccc3c2C(=O)N(Cc2ccncc2)C3=O)C1 |
| 118 to 120 | NC(=O)CCCCCOc1cc(-c2ccccc2)cc(-c2ccccc2)n1 |
| 227 | CN1C(=O)c2cnc(-c3ccccc3)nc2Nc2ccccc21 |
| 128 to 129 | O=C(O)[C@H](Cc1ccc(C(F)(F)F)cc1)[C@@H](O)c1cccc(F)c1 (racemic) |

| melting point [°C] | SMILES |
| --- | --- |
| 172 to 174 | COc1ccc(-c2ncc(NC(=O)OCc3ccccc3)c(=O)n2CC(=O)NC(Cc2ccccc2)C(=O)C(F)(F)F)cc1 (stereo not drawn) |
| 135 to 139 | CC1CCN(CCOc2ccc(NC(=O)CC(=O)c3ccc(-c4ccccc4)cc3)cc2Cl)CC1 |
| 256 to 258 | CCNc1nc2cccc(C(=O)OC)c2n1Cc1ccc(-c2ccccc2-c2nnn[nH]2)cc1 |
| 111 to 112 | Cn1ncc2ccccc2c1=O |
| 135 to 136 | COc1cc(OC(C)=O)c2ccccc2c1OC(C)=O |
| 162 to 164 | CCOC(=O)C(NC(=O)Nc1c(F)cc(F)cc1CCc1cc(C(C)(C)C)c(O)c(C(C)(C)C)c1)c1ccccc1 (stereo not drawn) |
| 138 | CCCC(NC(=O)C1CC(=O)c2cc(F)ccc2O1)c1ccccc1 (single isomer, unassigned; (+)) |
| 130 | CCCCc1oc2ccccc2c1C(=O)c1ccc(NS(=O)(=O)c2cccnc2)cc1 |
| 272 to 275 | NC(=O)C1CCN(c2cc(-c3ccc(Cl)cc3)nc3ccc(Cl)cc23)CC1 |
| 195 to 198 | Oc1ccc(Sc2ccc(F)cc2)c2ccccc12 |
| 200 to 201 | O=C1CC(c2cccc(-n3ccnc3)c2)=Nc2ccc(-c3cccc(F)c3)cc2N1 |
| 179 to 180 | Cc1nn(-c2ccc(F)cc2)cc1C(=O)Nc1ccc(OCC(C)C)c(C#N)c1 |
| 161 to 163 | O=C(O)C1Oc2cc(Cl)c(S(=O)(=O)c3cccc(F)c3)cc2O1 (stereo not drawn) |
| 131 to 133 | Nc1ccc(-c2cc(OCCCCCC(=O)O)nc(-c3ccccc3)c2)cc1 |
| 225 to 228 | O=CNCc1ncc(-c2ccccc2)o1 |
| 121 to 123 | N=C(Nc1cc(Cl)cc(NC(=O)/C=C/c2ccccc2C(F)(F)F)c1)c1ccsc1 |
| 259 to 260 | Cc1ccc2nc(NC(=O)c3ccc(C(C)(C)C)cc3)cn2c1 |
| 193 to 194 | COc1ccc(C(NCC(c2ccccc2)c2ccccc2)c2cccc(Nc3c(N)c(=O)c3=O)c2)cc1 (stereo not drawn) |
| 110 to 111 | CCOC(=O)C(Cc1cccnc1)c1nnc2c(CC(C)C)nc(-c3ccccc3)cn12 (stereo not drawn) |
| 158 to 159 | Cc1nnc(-c2ccc3occ(-c4ccc(SCc5ccccc5)cc4)c3c2)o1 |
| 103 | O=C1CN(c2ccccc2)C(=S)N1Cc1ccccc1 |
| 147 to 154 | Cc1c(Cc2ccccc2)c(=O)oc2cc(OCC#N)cc(OCC#N)c12 |
| 53 to 54 | Cc1cc(Oc2cccc(C(F)(F)F)c2)nn1C(=O)Nc1ccccc1 |
| 50 to 50.5 | Cc1ccc(C(=O)CCCC(C)C(=O)O)cc1 (stereo not drawn) |
| 154 to 155 | CC(C)C(NS(=O)(=O)c1ccccc1)C(=O)NO (stereo not drawn) |
| 129 to 130 | Cc1ccc(C(=O)Nc2ccc(N3CCCC3)c(C(F)(F)F)c2)cc1Nc1nccc(-c2cccnc2)n1 |
| 224 to 227 | CC12CCC3c4ccc(C(=O)O)cc4CCC3C1CCC2C(=O)CCc1ccc(F)cc1 (stereo not drawn) |

— a melting point compilation (Tetko et al.; mined from patent text by program, amines drawn as free bases though some values may be those of a salt)
